Patent US9717699B2, “Sterilized compositions of cyanoacrylate monomers and naphthoquinone 2,3-oxides” (Adhezion Biomedical, LLC, priority 2014, dated 2017)

Assay: Miscibility/solubility of additive in cyanoacrylate monomer
Type: physicochemical
Conditions: activated 2-octyl cyanoacrylate composition, room temperature

SMILES	Miscibility with 2-octyl cyanoacrylate	Miscibility with 2-octyl cyanoacrylate (listed as Phylloquinone oxide)
C/C(=C\CC12OC1(C)C(=O)c1ccccc1C2=O)CCCC(C)CCCC(C)CCCC(C)C (centres unmarked) [Vitamin K1 oxide, 2-methyl-3-phytyl-1,4-naphthoquinone 2,3-oxide]	well-miscible	well miscible
CC1=CC(=O)c2ccccc2C1=O [2-methyl-1,4-naphthoquinone]	well-miscible	–
CC(=O)Oc1cc(C)c(OC(C)=O)c2ccccc12 [1,4-diacetoxy-2-methylnaphthalene]	well soluble	–
CC1=C(C/C=C(\C)CCC[C@H](C)CCC[C@H](C)CCCC(C)C)C(=O)c2ccccc2C1=O [2-methyl-3-phytyl-1,4-naphthoquinone]	well dissolved	–
